Results published in ChEMBL document CHEMBL5500403, “Discovery of a Double-Stapled Short Peptide as a Long-Acting HIV-1 Inactivator with Potential for Oral Bioavailability” (J Med Chem, 2024).
Bridge positions count the residues as written; N and C are the ends. Square brackets hold non-standard residues; d marks the D form. Peptide text beside a SMILES is read from it. S5 = C=CCCC[C@](C)(N)C(=O)O

What was measured:
[1] = test system: Human immunodeficiency virus 1; assay: Antiviral activity against HIV-1 IIIB assessed as reduction in viral growth by measuring p24 antigen level incubated for 2 hrs by ELISA; format: functional, organism-based; details: Human immunodeficiency virus 1, IIIB
[2] = Plasma protein binding in rat by LC-MS/MS analysis; format: ADME, cell-free; details: read-out: PPB (converted)
[3] = test system: Human immunodeficiency virus 1; assay: Antiviral activity against HIV-1 clinical isolate X4-89BZ167 assessed as reduction in viral growth by measuring p24 antigen level incubated for 2 hrs by ELISA; format: functional, organism-based; details: Human immunodeficiency virus 1, clinical isolate X4-89BZ167, 2 h
[4] = test system: Human immunodeficiency virus 1; assay: Antiviral activity against HIV-1 IIIB infected in human MT2 cells assessed as inhibition of viral growth pretreated with virus for 30 mins followed by infection with cells incubated for 72 hrs by ELISA; format: functional, organism-based; details: Human immunodeficiency virus 1, IIIB
[5] = test system: Human immunodeficiency virus 1; assay: Antiviral activity against HIV-1 Bal-R5 assessed as reduction in viral growth by measuring p24 antigen level incubated for 2 hrs by ELISA; format: functional, organism-based; details: Human immunodeficiency virus 1, Bal-R5, 2 h
[6] = Plasma protein binding in human by LC-MS/MS analysis; format: ADME, cell-free; details: read-out: PPB (converted)
[7] = Cytotoxicity against human MT2 cells; format: toxicity, cell-based
[8] = Selectivity index, ratio of CC50 for cytotoxicity against human MT2 cells to IC50 for antiviral activity against HIV-1 IIIB infected in human MT2 cells; format: toxicity, cell-based; details: read-out: Ratio CC50/IC50
[9] = Biodistribution in Sprague-Dawley rat brain at 1 mg/kg,iv administration measured after 5 mins by LC-MS/MS analysis; format: ADME, organism-based; details: in vivo
[10] = Total clearance in Sprague-Dawley rat at 1 mg/kg,iv administration measured upto 9 days by LC-MS/MS analysis; format: ADME, organism-based; details: in vivo, time < 9 day
[11] = test system: Human immunodeficiency virus 1; assay: Antiviral activity against T20-resistant HIV-1 NL4-3 harboring […] V38E and N42S mutant infected in human MT2 cells assessed as inhibition of viral growth pretreated with virus for 30 mins followed by infection with cells incubated for 72 hrs by ELISA; format: functional, organism-based
[12] = Elimination half life in Sprague-Dawley rat at 1 mg/kg,iv administration measured upto 9 days by LC-MS/MS analysis; format: ADME, organism-based; details: in vivo, time < 9 day, read-out: beta t1/2 (converted)
[13] = test system: Human immunodeficiency virus 1; assay: Antiviral activity against T20-resistant HIV-1 NL4-3 harboring […] N42T and N43K mutant infected in human MT2 cells assessed as inhibition of viral growth pretreated with virus for 30 mins followed by infection with cells incubated for 72 hrs by ELISA; format: functional, organism-based
[14] = AUClast in Sprague-Dawley rat at 1 mg/kg,iv administration measured upto 9 days by LC-MS/MS analysis; format: ADME, organism-based; details: in vivo, time < 9 day
[15] = Biodistribution in Sprague-Dawley rat brain at 1 mg/kg,iv administration measured after 144 hrs by LC-MS/MS analysis; format: ADME, organism-based; details: in vivo
[16] = Volume of distribution at steady state in Sprague-Dawley rat at 1 mg/kg,iv administration measured upto 9 days by LC-MS/MS analysis; format: ADME, organism-based; details: in vivo, time < 9 day, read-out: Vdss
[17] = biological target: chymotrypsin (Homo sapiens, UniProt P17538+P40313+Q6GPI1+Q99895); assay: Proteolytic stability assessed as Chymotrypsin (unknown origin) mediated compound degradation by measuring parent compound remaining incubated for 2 hrs by LC-MS/MS analysis; format: ADME, protein assay; details: read-out: Stability
[18] = MRT in Sprague-Dawley rat at 1 mg/kg,iv administration measured upto 9 days by LC-MS/MS analysis; format: ADME, organism-based; details: in vivo, time < 9 day
[19] = test system: Human immunodeficiency virus 1; assay: Antiviral activity against T20-resistant HIV-1 NL4-3 harboring […] N42T and N43K mutant assessed as reduction in viral growth by measuring p24 antigen level incubated for 2 hrs by ELISA; format: functional, organism-based
[20] = Drug degradation in rat plasma at 1 ug/ml incubated for 1 hr by LC-MS/MS analysis; format: ADME, cell-free; details: at 1 µg/mL
[21] = Proteolytic stability assessed as Pepsin (unknown origin) mediated compound degradation incubated for 4 hrs by LC-MS/MS analysis; format: ADME; details: human
[22] = Proteolytic stability assessed as proteinase K (unknown origin) mediated compound degradation incubated for 4 hrs by LC-MS/MS analysis; format: ADME; details: human
[23] = Stability in rat liver assessed as parent compound remaining at 1 ug/ml incubated for 1 hr by LC-MS/MS analysis; format: ADME, tissue-based; details: at 1 µg/mL, read-out: Stability
[24] = test system: Human immunodeficiency virus 1; assay: Antiviral activity against T20-resistant HIV-1 NL4-3 harboring […] N38A and N42T mutant assessed as reduction in viral growth by measuring p24 antigen level incubated for 2 hrs by ELISA; format: functional, organism-based
[25] = Drug concentration in Sprague-Dawley rat plasma at 50 mg/kg,po administrated for 5 days by LC-MS/MS analysis; format: ADME, organism-based; details: in vivo, 120 h, time 5 day
[26] = test system: Human immunodeficiency virus 1; assay: Antiviral activity against T20-resistant HIV-1 NL4-3 harboring […] V38E and N42S mutant assessed as reduction in viral growth by measuring p24 antigen level incubated for 2 hrs by ELISA; format: functional, organism-based
[27] = test system: Human immunodeficiency virus 1; assay: Antiviral activity against T20-resistant HIV-1 NL4-3 harboring […] N38A and N42T mutant infected in human MT2 cells assessed as inhibition of viral growth pretreated with virus for 30 mins followed by infection with cells incubated for 72 hrs by ELISA; format: functional, organism-based

Compound: enfuvirtide
- EC50 [1]: > 4000 nM
- fraction unbound [2]: 0.041
- EC50 [3]: > 4000 nM
- IC50 [4]: 48.6 nM
- EC50 [5]: > 4 µM
- fraction unbound [6]: 0.187

Compound: CC(=O)N[C@@]1(C)CCC/C=C\CCC[C@@](C)(C(=O)N[C@@H](CCCCN)C(=O)N[C@@H](Cc2ccc(O)cc2)C(=O)N[C@@]2(C)CCC/C=C\CCC[C@@](C)(C(=O)N[C@@H](CCC(N)=O)C(=O)N[C@@H](Cc3ccc(O)cc3)C(=O)N[C@@H](Cc3c[nH]c4ccccc34)C(N)=O)NC(=O)[C@H](CC(C)C)NC(=O)[C@H](CC(N)=O)NC(=O)[C@H](Cc3c[nH]c4ccccc34)NC2=O)NC(=O)[C@H](C)NC(=O)[C@H](CCC(=O)O)NC(=O)[C@H](Cc2c[nH]c3ccccc23)NC1=O (Ac-[S5]WEA[S5]KY[S5]WNL[S5]QYW-NH2; staple (Z) 1-5, 8-12)
- CC50 [7]: 4.03 µM
- selectivity ratio [8]: 32.6
- IC50 [4]: 124 nM

Compound: CC(=O)NCC(=O)N[C@@]1(C)CCC/C=C\CCC[C@@](C)(C(=O)N[C@@H](Cc2ccc(O)cc2)C(=O)N[C@@H](CC(C)C)C(=O)N[C@@H](Cc2c[nH]c3ccccc23)C(=O)N[C@@H](CC(N)=O)C(=O)N[C@@H](CC(C)C)C(=O)N[C@@H](CC(C)C)C(=O)N[C@@H](CCC(N)=O)C(=O)N[C@@H](Cc2ccc(O)cc2)C(=O)N[C@@H](Cc2c[nH]c3ccccc23)C(N)=O)NC(=O)[C@H](CC(C)C)NC(=O)[C@H](C)NC(=O)[C@H](CCC(=O)O)NC1=O (Ac-G[S5]EAL[S5]YLWNLLQYW-NH2; staple (Z) 2-6)
- CC50 [7]: 7.18 µM
- selectivity ratio [8]: 59.3
- IC50 [4]: 121 nM

Compound: CC(=O)NCC(=O)N[C@@H](Cc1c[nH]c2ccccc12)C(=O)N[C@@H](CCC(=O)O)C(=O)N[C@@H](C)C(=O)N[C@@H](CC(C)C)C(=O)N[C@@H](CCCCN)C(=O)N[C@@H](Cc1ccc(O)cc1)C(=O)N[C@@H](CC(C)C)C(=O)N[C@@]1(C)CCC/C=C\CCC[C@@](C)(C(=O)N[C@@H](Cc2ccc(O)cc2)C(=O)N[C@@H](Cc2c[nH]c3ccccc23)C(N)=O)NC(=O)[C@H](CC(C)C)NC(=O)[C@H](CC(C)C)NC(=O)[C@H](CC(N)=O)NC1=O (Ac-GWEALKYL[S5]NLL[S5]YW-NH2; staple (Z) 9-13)
- CC50 [7]: 5.87 µM
- selectivity ratio [8]: 36.9
- IC50 [4]: 160 nM

Compound: CC(=O)NCC(=O)N[C@@H](Cc1c[nH]c2ccccc12)C(=O)N[C@@H](CCC(=O)O)C(=O)N[C@@H](C)C(=O)N[C@@]1(C)CCC/C=C\CCC[C@@](C)(C(=O)N[C@@H](CC(N)=O)C(=O)N[C@@H](CC(C)C)C(=O)N[C@@H](CC(C)C)C(=O)N[C@@H](CCC(N)=O)C(=O)N[C@@H](Cc2ccc(O)cc2)C(=O)N[C@@H](Cc2c[nH]c3ccccc23)C(N)=O)NC(=O)[C@H](CC(C)C)NC(=O)[C@H](Cc2ccc(O)cc2)NC(=O)[C@H](CCCCN)NC1=O (Ac-GWEA[S5]KYL[S5]NLLQYW-NH2; staple (Z) 5-9)
- IC50 [4]: > 2000 nM

Compound: H-GWEALKYLWNLLQYW-OH
- Drug uptake [9]: Active
- clearance [10]: 0.158 mL/min/kg
- IC50 [11]: 21.3 nM
- half-life [12]: 228 min
- EC50 [1]: 26.1 nM
- CC50 [7]: 7.9 µM
- IC50 [13]: 142 nM
- AUC(0-t) at 216 h [14]: 114 µg·h/mL
- Drug uptake [15]: Not Active
- Vd [16]: 0.0527 L/kg
- selectivity ratio [8]: 60.9
- remaining at 2 h [17]: 32.9%
- MRT [18]: 5.4 h
- EC50 [19]: 41.9 nM
- Stability [20]: Stable
- Stability [21]: Unstable
- EC50 [3]: 98 nM
- Stability [22]: Unstable
- IC50 [4]: 130 nM
- remaining at 1 h, 1 ug/ml [23]: 80%
- EC50 [24]: 30.5 nM
- EC50 [5]: 25.3 µM
- Drug uptake [25]: Not Active
- EC50 [26]: 371 nM
- IC50 [27]: 20.1 nM

Compound: CC(=O)NCC(=O)N[C@@H](Cc1c[nH]c2ccccc12)C(=O)N[C@@H](CCC(=O)O)C(=O)N[C@@H](C)C(=O)N[C@@H](CC(C)C)C(=O)N[C@@H](CCCCN)C(=O)N[C@@H](Cc1ccc(O)cc1)C(=O)N[C@@]1(C)CCC/C=C\CCC[C@@](C)(C(=O)N[C@@H](CCC(N)=O)C(=O)N[C@@H](Cc2ccc(O)cc2)C(=O)N[C@@H](Cc2c[nH]c3ccccc23)C(N)=O)NC(=O)[C@H](CC(C)C)NC(=O)[C@H](CC(N)=O)NC(=O)[C@H](Cc2c[nH]c3ccccc23)NC1=O (Ac-GWEALKY[S5]WNL[S5]QYW-NH2; staple (Z) 8-12)
- CC50 [7]: 2.49 µM
- selectivity ratio [8]: 26.1
- IC50 [4]: 95.5 nM

Compound: CC(=O)N[C@@]1(C)CCC/C=C\CCC[C@@](C)(C(=O)N[C@@H](CCCCN)C(=O)N[C@@H](Cc2ccc(O)cc2)C(=O)N[C@@H](CC(C)C)C(=O)N[C@@H](Cc2c[nH]c3ccccc23)C(=O)N[C@@H](CC(N)=O)C(=O)N[C@@H](CC(C)C)C(=O)N[C@@H](CC(C)C)C(=O)N[C@@H](CCC(N)=O)C(=O)N[C@@H](Cc2ccc(O)cc2)C(=O)N[C@@H](Cc2c[nH]c3ccccc23)C(N)=O)NC(=O)[C@H](C)NC(=O)[C@H](CCC(=O)O)NC(=O)[C@H](Cc2c[nH]c3ccccc23)NC1=O (Ac-[S5]WEA[S5]KYLWNLLQYW-NH2; staple (Z) 1-5)
- CC50 [7]: 2.67 µM
- selectivity ratio [8]: 78.5
- IC50 [4]: 34.2 nM

Compound: CC(=O)NCC(=O)N[C@@H](Cc1c[nH]c2ccccc12)C(=O)N[C@@H](CCC(=O)O)C(=O)N[C@@]1(C)CCC/C=C\CCC[C@@](C)(C(=O)N[C@@H](Cc2c[nH]c3ccccc23)C(=O)N[C@@H](CC(N)=O)C(=O)N[C@@H](CC(C)C)C(=O)N[C@@H](CC(C)C)C(=O)N[C@@H](CCC(N)=O)C(=O)N[C@@H](Cc2ccc(O)cc2)C(=O)N[C@@H](Cc2c[nH]c3ccccc23)C(N)=O)NC(=O)[C@H](Cc2ccc(O)cc2)NC(=O)[C@H](CCCCN)NC(=O)[C@H](CC(C)C)NC1=O (Ac-GWE[S5]LKY[S5]WNLLQYW-NH2; staple (Z) 4-8)
- CC50 [7]: 2.31 µM
- selectivity ratio [8]: 52.5
- IC50 [4]: 44.2 nM
